Here are results for 14 compounds from patent US8148411B2, “2-hetarylthiazole-4-carboxamide derivatives, their preparation and use as pharmaceuticals” (Bayer Pharma Aktiengesellschaft, priority 2007, dated 2012).

The structures appear in SMILES notation.

The subject of the experiment is TLR7. The experiment in a line: TLR-induced cytokine release in human peripheral blood mononuclear cells (PBMC), TNF-alpha by ELISA. It is filed as cell-based. The following applies: human PBMC incubated 18 hours with test substance in presence of TLR7 ligand; TNF-alpha in supernatant by ELISA; read-out: EC50 (TNF-α TLR7). The protocol:
TLR-Induced Cytokine Release in Human “Peripheral Blood Mononuclear Cells” (PBMC)
PBMCs isolated from human whole blood are stimulated using a TLR ligand.
The cytokine determination is carried out by means of ELISA kits; a proliferation/cell metabolism determination is carried out using Alamar Blue.
For the cell preparation, about 200 ml of blood are treated with an anticoagulant (e.g. citrate Monovettes). Per Leucosep tube, 15 ml of Histopaque (room temperature, RT) are poured in and forced downwards through the inserted frit by brief initial centrifugation (one minute at 1000×g, RT). 20 ml of blood are added to the tubes prepared in this way and centrifuged at 800×g for 15 minutes (RT). After centrifugation, the following layering results from the top to the bottom:
plasma-PBMC-Histopaque-filter disc-Histopaque-erythrocytes and granulocytes. The supernatant plasma is aspirated. The PBMC are transferred together with the underlying Histopaque to a new 50 ml tube, the contents of two Leucosep tubes always being added to one 50 ml tube. The 50 ml tubes are then filled to 50 ml with PBS. This cell suspension is centrifuged at 300×g (RT) for 10 minutes.
The liquid supernatant is tipped off and the cell pellet is resuspended with a little PBS and subsequently filled to 50 ml with PBS. This washing step is repeated twice. The resulting pellet is taken up in a defined volume of medium (with additives). For the testing of the substances, PBMC are incubated for 18 hours with titrated concentrations of the test substances, e.g. in the presence or absence of TLR7 or TLR9 ligands. On the next day, the supernatants are investigated for the content of TNF-alpha or other cyto- or chemokines by means of specific ELISA. The metabolic activity of the treated cells is determined with the aid of Alamar Blue.
In general terms: An ELISA detects its analyte on a solid surface through an enzyme-linked reagent.

On to `NC(=O)c1ccccc1NC(=O)c1csc(-c2cccnc2)n1` [Example 1.1, N-[2-(Aminocarbonyl)phenyl]-2-(3-pyridinyl)-4-thiazolecarboxamide], for which the EC50 – broadly, the midpoint of the concentration-response curve – was 900 nM. The result for `Cn1ncc(NC(=O)c2csc(-c3ccncc3)n2)c1C(N)=O` [Example 1.2, N-[5-(Aminocarbonyl)-1-methyl-1H-pyrazol-4-yl]-2-(4-pyridinyl)-4-thiazolecarboxamide] reads 2400 nM. Consider `NC(=O)c1ccccc1NC(=O)c1csc(-c2ccncc2)n1` [Example 1.3, N-[2-(Aminocarbonyl)phenyl]-2-(4-pyridinyl)-4-thiazolecarboxamide], for which the EC50 was 1300 nM. With `Cc1ccc(NC(=O)c2csc(-c3cccnc3)n2)c(C(N)=O)c1` [Example 1.4, N-[2-(Aminocarbonyl)-4-methylphenyl]-2-(3-pyridinyl)-4-thiazolecarboxamide], the EC50 amounted to 490 nM. With `Cc1ccc(C(N)=O)c(NC(=O)c2csc(-c3cccnc3)n2)c1` [Example 1.5, N-[2-(Aminocarbonyl)-5-methylphenyl]-2-(3-pyridinyl)-4-thiazolecarboxamide], the EC50 turned out to be 4100 nM.

As to `NC(=O)c1cc(Cl)ccc1NC(=O)c1csc(-c2cccnc2)n1` [Example 1.6, N-[2-(Aminocarbonyl)-4-chlorophenyl]-2-(3-pyridinyl)-4-thiazolecarboxamide], the EC50 is 30000 nM. As for `NC(=O)c1ncccc1NC(=O)c1csc(-c2cccnc2)n1` [Example 1.7, 3-[(2-Pyridin-3-ylthiazole-4-carbonyl)amino]pyridine-2-carboxamide], the figure is 1800 nM; as for `Cc1ccc(C(N)=O)c(NC(=O)c2csc(-c3ccncc3)n2)c1` [Example 1.8, N-[2-(Aminocarbonyl)-5-methylphenyl]-(4-pyridinyl)-4-thiazolecarboxamide], 1100 nM; as for `Cc1ccc(C(N)=O)c(NC(=O)c2csc(-c3cnccc3C(F)(F)F)n2)c1` [Example 1.11, N-[2-(Aminocarbonyl)-5-methylphenyl]-2-[4-(trifluoromethyl)-3-pyridinyl]-4-thiazolecarboxamide], 30000 nM. Turning to `CC(C)(C)c1cc(NC(=O)c2csc(-c3cccnc3)n2)c(C(N)=O)s1` [Example 1.17, N-[2-(Aminocarbonyl)-5-(1,1-dimethylethyl)-3-thienyl]-2-(3-pyridinyl)-4-thiazolecarboxamide], the EC50 was 2600 nM. Turning to `NC(=O)c1cc(F)ccc1NC(=O)c1csc(-c2cccnc2)n1` [Example 1.18, N-[2-(Aminocarbonyl)-4-fluorophenyl]-2-(3-pyridinyl)-4-thiazolecarboxamide], the EC50 is 1900 nM. As to `NC(=O)c1ncccc1NC(=O)c1csc(-c2ccncc2)n1` [Example 1.21, 3-[(2-Pyridin-4-ylthiazole-4-carbonyl)amino]pyridine-2-carboxamide], the EC50 came to 5200 nM. As to `NC(=O)c1ccncc1NC(=O)c1csc(-c2ccncc2)n1` [Example 1.22, 3-[(2-Pyridin-4-ylthiazole-4-carbonyl)amino]isonicotinamide], the EC50 was determined as 7000 nM. The result for `Cc1ccc(C(N)=O)c(NC(=O)c2csc(-c3ccc(N)nc3)n2)c1` [Example 2.4, N-[2-(Aminocarbonyl)-5-methylphenyl]-2-(6-aminopyridin-3-yl)thiazole-4-carboxamide] reads 1300 nM.
